ChEMBL document CHEMBL3272190, “(2-exo-3-endo)-2-Aryltropane-3-carboxylic esters, a new class of narcotic antagonists” (J Med Chem, 1978)
Active and inactive are the calls of the source. The rule behind the calls is not given here.

How the values were obtained:
[1] = test system: Rattus norvegicus; test: Narcotic analgesic activity in sc dosed rat assessed as inhibition of phenazocine-induced effect by D'Amour-Smith tail flick test; assay type: functional
[2] = test system: Mus musculus; test: Antiwrithing activity in sc dosed mouse assessed as prevention of acetylcholine-induced abdominal constriction response; assay type: functional; settings: Abdomen
[3] = test system: Rattus norvegicus; test: Narcotic analgesic activity in po dosed rat assessed as inhibition of phenazocine-induced effect by D'Amour-Smith tail flick test; assay type: functional
[4] = test system: Mus musculus; test: Induction of depression in mouse at 75 mg/kg, sc; assay type: organism-based; set-up: dose 75 mg/kg, route subcutaneous; settings: in vivo
[5] = test system: Mus musculus; test: Antiwrithing activity in mouse assessed as prevention of acetylcholine-induced abdominal constriction response at 25 mg/kg, sc; assay type: functional, Abdomen; settings: route subcutaneous
[6] = test system: Mus musculus; test: Antiwrithing activity in mouse assessed as prevention of acetylcholine-induced abdominal constriction response at 100 mg/kg, sc; assay type: functional, Abdomen; settings: route subcutaneous
[7] = test system: Mus musculus; test: Induction of sedation in mouse at 40 mg/kg, sc; assay type: organism-based; set-up: dose 40 mg/kg, route subcutaneous; settings: in vivo
[8] = test system: Rattus norvegicus; test: Induction of tremors in rat at 120 mg/kg, sc; assay type: organism-based; set-up: dose 120 mg/kg, route subcutaneous; settings: in vivo
[9] = test system: Mus musculus; test: Antiwrithing activity in sc dosed mouse assessed as prevention of phenyl-p-benzoquinone-induced abdominal constriction response; assay type: functional; settings: Abdomen
[10] = test system: Rattus norvegicus; test: Narcotic analgesic activity in sc dosed rat assessed as inhibition of morphine-induced effect by D'Amour-Smith tail flick test; assay type: functional, organism-based
[11] = test system: Rattus norvegicus; test: Narcotic analgesic activity in po dosed rat assessed as inhibition of meperidine-induced effect by D'Amour-Smith tail flick test; assay type: functional, organism-based
[12] = test system: Mus musculus; test: Induction of hyperexcitable in mouse at 100 mg/kg, sc; assay type: organism-based; set-up: dose 100 mg/kg, route subcutaneous; settings: in vivo
[13] = test system: Rattus norvegicus; test: Analgesic activity in rat assessed as inhibition of intraarterial bradykinin-induced effect up to 100 mg/kg, sc; assay type: functional
[14] = test system: Rattus norvegicus; test: Narcotic analgesic activity in sc dosed rat assessed as inhibition of meperidine-induced effect by D'Amour-Smith tail flick test; assay type: functional, organism-based
[15] = test system: Mus musculus; test: Antiwrithing activity in po dosed mouse assessed as prevention of phenyl-p-benzoquinone-induced abdominal constriction response; assay type: functional; settings: Abdomen
[16] = test system: Mus musculus; test: Antiwrithing activity in po dosed mouse assessed as prevention of acetylcholine-induced abdominal constriction response; assay type: functional; settings: Abdomen
[17] = test system: Rattus norvegicus; test: Induction of convulsion in rat at 120 mg/kg, sc; assay type: organism-based; set-up: dose 120 mg/kg, route subcutaneous; settings: in vivo
[18] = test system: Rattus norvegicus; test: Narcotic analgesic activity in po dosed rat assessed as inhibition of morphine-induced effect by D'Amour-Smith tail flick test; assay type: functional, organism-based
[19] = test system: Rattus norvegicus; test: Induction of hyperactiveness in rat at 200 mg/kg, po; assay type: organism-based; set-up: dose 200 mg/kg, route oral; settings: in vivo
[20] = test system: Mus musculus; test: Analgesic activity in mouse assessed as inhibition of intraarterial bradykinin-induced effect at 50 mg/kg, sc; assay type: functional, organism-based; set-up: dose 50 mg/kg
[21] = test system: Rattus norvegicus; test: Induction of depression in rat at 75 mg/kg, sc; assay type: organism-based; set-up: dose 75 mg/kg, route subcutaneous; settings: in vivo
[22] = test system: Mus musculus; test: Induction of hyperactiveness in mouse at 30 mg/kg, sc; assay type: organism-based; set-up: dose 30 mg/kg, route subcutaneous; settings: in vivo
[23] = test system: Mus musculus; test: Induction of convulsion in mouse at 75 mg/kg, sc; assay type: organism-based; set-up: dose 75 mg/kg, route subcutaneous; settings: in vivo
[24] = test system: Mus musculus; test: Toxicity in mouse assessed as mortality at >15 mg/kg, sc; assay type: organism-based; settings: in vivo
[25] = test system: Mus musculus; test: Antiwrithing activity in mouse assessed as prevention of acetylcholine-induced abdominal constriction response at 15 mg/kg, sc; assay type: functional, Abdomen; settings: route subcutaneous

COC(=O)[C@H]1C[C@H]2CC[C@H]([C@H]1c1ccccc1)N2C
AD50 [1]: >80 mg/kg

COC(=O)[C@H]1C[C@H]2CC[C@@H]([C@H]1c1ccccc1)N2C
AD50 [1]: 3.3 mg/kg

COC(=O)[C@H]1C[C@H]2CC[C@@H](N2)[C@H]1c1cccc(O)c1
AD50 [1]: >80 mg/kg | ED50 [2]: 60 mg/kg

COC(=O)[C@H]1C[C@H]2CC[C@H](N2)[C@H]1c1cccc(O)c1
AD50 [3]: 14 mg/kg | AD50 [1]: 0.3 mg/kg | ED50 [2]: 60 mg/kg

COC(=O)[C@H]1C[C@H]2CC[C@@H]3[C@H]1c1cc(O)ccc1CN23
Activity [4]: Toxic | Activity [5]: 0% | Activity [6]: 100% | AD50 [1]: 1.45 mg/kg

COC(=O)[C@H]1C[C@H]2CC[C@@H]3[C@H]1c1cccc(O)c1CN23
AD50 [1]: 2 mg/kg

COC(=O)[C@@H]1C[C@H]2CCC([C@H]1c1ccccc1)N2C (mixture of isomers)
Activity [7]: Toxic | Activity [8]: Toxic | AD50 [1]: >80 mg/kg | ED50 [2]: 12 mg/kg | ED50 [9]: 17 mg/kg

COC(=O)[C@H]1C[C@H]2CCC([C@H]1c1ccccc1)N2C (mixture of isomers)
Activity [10]: inactive | Activity [11]: inactive | Activity [12]: Toxic | Activity [13]: inactive | Activity [14]: inactive | AD50 [3]: 1.1 mg/kg | ED50 [15]: > 200 mg/kg | ED50 [16]: 16 mg/kg | Activity [7]: Toxic | Activity [17]: Toxic | AD50 [1]: 5.5 mg/kg | ED50 [2]: 12 mg/kg | Activity [18]: inactive | ED50 [9]: 43 mg/kg

COC(=O)[C@H]1C[C@H]2CCC(N2)[C@H]1c1cccc(O)c1 (mixture of isomers)
AD50 [1]: 2 mg/kg

COC(=O)C1C[C@H]2CC[C@H]([C@H]1c1cccs1)N2C (mixture of isomers)
Activity [4]: Toxic | AD50 [1]: 4.9 mg/kg | ED50 [2]: 13 mg/kg | ED50 [9]: 60 mg/kg

COC(=O)[C@H]1C[C@H]2CC[C@H]([C@H]1c1ccc[nH]1)N2C (racemic)
Activity [19]: Toxic | ED50 [16]: 34 mg/kg | AD50 [1]: >80 mg/kg

COC(=O)[C@@H]1C[C@H]2CC[C@H]([C@H]1c1ccccc1)N2Cc1ccccc1 (racemic)
ED50 [16]: 21 mg/kg | AD50 [1]: >80 mg/kg | ED50 [2]: > 75 mg/kg

COC(=O)[C@H]1C[C@H]2CC[C@@H](N2)[C@H]1c1ccccc1 (racemic)
AD50 [3]: 4.1 mg/kg | ED50 [15]: 100 mg/kg | ED50 [16]: 8.4 mg/kg | Activity [20]: Active | Activity [8]: Toxic | Activity [21]: Toxic | AD50 [1]: 2.1 mg/kg | ED50 [2]: 3.4 mg/kg | ED50 [9]: 22 mg/kg

COC(=O)[C@H]1C[C@H]2CC[C@H]([C@H]1c1ccccc1)N2CC1CC1 (racemic)
Activity [22]: Toxic | Activity [23]: Toxic | Activity [24]: Toxic | AD50 [1]: 10 mg/kg | Activity [25]: 67% | ED50 [2]: 10 mg/kg

CN1[C@@H]2CC[C@@H]1[C@@H](c1ccccc1)[C@@H](C(=O)O)C2 (racemic)
AD50 [1]: >80 mg/kg

CC(C)OC(=O)[C@H]1C[C@H]2CC[C@H]([C@H]1c1ccccc1)N2C (racemic)
Activity [22]: Toxic | Activity [17]: Toxic | AD50 [1]: >80 mg/kg | ED50 [2]: 16 mg/kg
